Laboratory results from ChEMBL document CHEMBL1201862, “PubChem BioAssay data set” (2004).
Calls of active or inactive are those of the source.

Key:
A549 = assay: A549 cell toxicity, dose response, cytotoxicity control, plate reader, cherry-pick samples (AID 687028); type: functional, cell-based; settings: Homo sapiens
[1] = inhibitors of intracellular T. cruzi replication, confirmation, NIH3T3 host cells, beta-gal luminescence (AID 2044); type: functional, cell-based;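 also: intracellular parasites grown in NIH/3T3 mouse fibroblasts as host cells; luminescent beta-galactosidase reporter signal from transgenic T. cruzi replicating inside host cells; inhibitors lower the luminescence signal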
[2] = target: T1, Probable nicotinate-nucleotide adenylyltransferase (Staphylococcus aureus (strain N315), UniProt P65502); type: functional, Staphylococcus aureus subsp. aureus N315; settings: read-out: IC50_Mean;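 as to IC50 Mean: confirmatory dose-response retesting of NadD inhibitor hits first found in an ultra-high-throughput screen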
Albumin = Albumin (Bos taurus, UniProt P02769); assay: Counterscreen for inhibitors of T-cell receptor (TCR)-CD3 interaction: Fluorescence-based biochemical high throughput dose response assay to identify inhibitors of T-cell receptor (TCR)-CD3 interaction using a TAMRA-labeled BSA probe.; type: functional
[3] = target: T1, Probable nicotinate-nucleotide adenylyltransferase; type: functional, Staphylococcus aureus subsp. aureus N315
[4] = HEp-2 cell cytotoxicity, dose response, cytotoxicity control for RSV inhibitor project, HTS (AID 2410); type: functional; settings: human respiratory syncytial virus
[5] = cytotoxicity toward NIH3T3 fibroblasts, dose response, counter-screen, cell-based, ATP luminescence, mouse fibroblasts (AID 2010); type: functional;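 also: cells exposed to compound for about 90 hours before reading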
Beta-galactosidase = Beta-galactosidase (Escherichia coli, UniProt Q8VNN2); assay: Dose response counterscreen for EBI2 assay utilizing the enzyme, b-galactosidase.; type: functional
Streptococcus = assay: Group A Streptococcus viability loss, dose response, counter-screen for streptokinase expression inhibitor project, luminescence, BacTiterGlo (AID 1915); type: functional, organism-based; settings: read-out: EC50;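 also: potency for reduction of bacterial viability or growth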
[6] = target: Voltage-gated inwardly rectifying potassium channel KCNH2 (Homo sapiens, UniProt Q12809); assay: hERG protection from proarrhythmic block, potency, dose response, cell-based, thallium flux (AID 2121); type: ADME
Streptokinase A = target: T2, Streptokinase A (Streptococcus pyogenes serotype M1, UniProt P10520); assay: S. pyogenes streptokinase expression inhibitors, potency, dose response, plasminogen activation absorbance, OD405 (AID 1914); type: functional, Streptococcus pyogenes M1 GAS;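 also: secreted streptokinase activity via plasminogen activation per viability signal from cell pellet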
T2 sequence (P10520 whole entry): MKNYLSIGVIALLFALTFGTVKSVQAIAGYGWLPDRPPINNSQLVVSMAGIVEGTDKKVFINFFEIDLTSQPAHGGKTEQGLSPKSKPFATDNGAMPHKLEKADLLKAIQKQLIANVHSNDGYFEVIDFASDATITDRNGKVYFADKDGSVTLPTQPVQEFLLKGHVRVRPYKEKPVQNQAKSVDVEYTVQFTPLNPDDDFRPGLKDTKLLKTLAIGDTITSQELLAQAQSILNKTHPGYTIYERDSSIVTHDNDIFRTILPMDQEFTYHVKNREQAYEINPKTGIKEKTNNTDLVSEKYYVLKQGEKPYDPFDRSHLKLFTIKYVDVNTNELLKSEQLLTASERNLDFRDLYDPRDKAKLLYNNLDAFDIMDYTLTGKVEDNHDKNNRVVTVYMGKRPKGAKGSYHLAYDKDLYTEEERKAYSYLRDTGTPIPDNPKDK

[7] = tested on: Streptococcus sp. 'group A'; assay: growth inhibition of control SK(-) GAS strain, dose response, counter-screen for streptokinase expression inhibitor project, luminescence, kanamycin, BacTiterGlo, confirmation (AID 1900); type: functional, organism-based
[8] = target: Fructose-bisphosphate aldolase (Mycobacterium tuberculosis, UniProt P9WQA3); assay: Fluorescence-based biochemical high throughput dose response assay for inhibitors of the fructose-bisphosphate aldolase (FBA) of M. tuberculosis.; type: functional
Beta-lactamase [9] = target: Beta-lactamase (Salmonella choleraesuis (strain SC-B67), UniProt Q5J463); assay: Epi-absorbance-based counterscreen for selective VIM-2 inhibitors: dose response biochemical high throughput screening assay to identify inhibitors of TEM-1 serine-beta-lactamase.
Beta-lactamase [10] = target: T3, Beta-lactamase (Pseudomonas aeruginosa, UniProt Q79MP6); assay: IMP-1 metallo-beta-lactamase inhibitors, dose response, selectivity assay for VIM-2 inhibitor project, biochemical, epi-absorbance (AID 1920)
Beta-lactamase [11] = target: T3, Beta-lactamase; assay: […] counterscreen for selective VIM-2 inhibitors: dose response biochemical high throughput screening assay to identify inhibitors of IMP-1 metallo-beta-lactamase.
[12] = target: T4, Carboxy-terminal domain RNA polymerase II polypeptide A small phosphatase 1 (Homo sapiens, UniProt Q9GZU7); assay: inhibitors of CTDSP1, concentration-response testing, biochemical assay, absorbance-based, actives from ultra-high-throughput screening (AID 540297); type: functional
T4 sequence (Q9GZU7 whole entry): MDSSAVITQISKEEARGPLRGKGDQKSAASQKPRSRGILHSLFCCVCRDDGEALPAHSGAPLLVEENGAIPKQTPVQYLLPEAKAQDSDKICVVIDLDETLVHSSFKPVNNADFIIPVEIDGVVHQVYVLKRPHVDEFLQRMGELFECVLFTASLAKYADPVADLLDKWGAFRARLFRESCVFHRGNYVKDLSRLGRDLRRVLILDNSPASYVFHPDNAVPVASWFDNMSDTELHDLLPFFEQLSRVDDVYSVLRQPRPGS

[13] = target: T5, Low molecular weight phosphotyrosine protein phosphatase (Homo sapiens, UniProt P24666); type: functional; settings: read-out: IC50_Mean
T5 sequence (P24666 whole entry): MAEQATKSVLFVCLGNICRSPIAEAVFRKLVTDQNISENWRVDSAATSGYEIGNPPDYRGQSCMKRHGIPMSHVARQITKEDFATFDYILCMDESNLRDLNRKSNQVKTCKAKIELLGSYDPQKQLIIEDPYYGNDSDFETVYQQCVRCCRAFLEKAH

[14] = target: T5, Low molecular weight phosphotyrosine protein phosphatase; type: functional; settings: read-out: IC50_Mean; remark: listed apart in the source
[15] = target: T6, DNA repair and recombination protein RAD54-like (Homo sapiens, UniProt Q92698); assay: inhibitors of human RAD54 branch migration, confirmation, biochemical, fluorescence, cherry-picked samples, dose series (AID 651657); type: functional
T6 sequence (Q92698 whole entry): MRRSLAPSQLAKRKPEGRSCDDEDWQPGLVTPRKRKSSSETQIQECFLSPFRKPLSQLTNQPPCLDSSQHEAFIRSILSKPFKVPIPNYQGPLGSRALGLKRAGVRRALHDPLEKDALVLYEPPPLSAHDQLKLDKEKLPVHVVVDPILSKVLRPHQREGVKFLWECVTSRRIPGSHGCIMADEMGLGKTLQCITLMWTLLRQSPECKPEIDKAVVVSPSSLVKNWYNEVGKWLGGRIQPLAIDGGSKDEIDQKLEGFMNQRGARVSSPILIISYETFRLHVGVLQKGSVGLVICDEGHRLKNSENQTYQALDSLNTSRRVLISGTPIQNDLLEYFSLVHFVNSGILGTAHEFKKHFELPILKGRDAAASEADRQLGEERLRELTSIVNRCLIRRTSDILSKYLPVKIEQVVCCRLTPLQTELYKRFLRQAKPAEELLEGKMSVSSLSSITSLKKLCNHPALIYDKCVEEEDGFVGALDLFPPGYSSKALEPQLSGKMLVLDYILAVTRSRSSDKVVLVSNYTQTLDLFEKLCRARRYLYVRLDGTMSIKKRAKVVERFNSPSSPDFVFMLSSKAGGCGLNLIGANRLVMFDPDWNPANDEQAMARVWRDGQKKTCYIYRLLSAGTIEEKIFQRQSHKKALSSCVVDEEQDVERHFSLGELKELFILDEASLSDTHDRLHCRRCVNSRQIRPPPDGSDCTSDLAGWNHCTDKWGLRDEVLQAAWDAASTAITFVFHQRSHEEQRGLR

[16] = MDA-MB-231 cell growth inhibition, dose response, cytotoxicity control for RAD54 inhibitor project, CellTiter-Glo luminescence, cherry-pick (AID 651692); type: functional, cell-based
[17] = target: T7, Sentrin-specific protease 1 (Homo sapiens, UniProt Q9P0U3); assay: Dose response confirmation of small molecule inhibitors of the catalytic domain of the SUMO protease, SENP1 in a FRET assay.; type: functional; settings: read-out: IC50_Mean
[18] = target: T7, Sentrin-specific protease 1; assay: potency of human SENP1 inhibitors, dose response, biochemical, kinetic FRET (AID 651697); type: functional; settings: read-out: IC50_Mean
Large T antigen = Large T antigen (Simian virus 40, UniProt P03070); type: functional, Betapolyomavirus macacae;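 also: Confirmatory-stage PubChem screen for compounds that inhibit SV40 T antigen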
[19] = intracellular Trypanosoma cruzi inhibitors in host cells – cell-based, plate reader, cherry-pick samples, set 3, dose response (AID 651818); type: functional;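 also: compounds incubated with infected cells for about four days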
[20] = NIH/3T3 fibroblast cytotoxicity, dose response, cytotoxicity control for T. cruzi growth inhibitor project, cell-based, cherry-pick samples, set 2 (AID 651817); type: functional; settings: NIH3T3
Aminopeptidase N = target: T8, Aminopeptidase N (Plasmodium falciparum FcB1/Columbia, UniProt O96935); assay: P. falciparum M1AAP inhibitors, biochemical, fluorogenic H-Leu-NHMec substrate, 1536-well (AID 1445); set-up: species or system Plasmodium falciparum 3D7, 3D7
T8 sequence (O96935 whole entry): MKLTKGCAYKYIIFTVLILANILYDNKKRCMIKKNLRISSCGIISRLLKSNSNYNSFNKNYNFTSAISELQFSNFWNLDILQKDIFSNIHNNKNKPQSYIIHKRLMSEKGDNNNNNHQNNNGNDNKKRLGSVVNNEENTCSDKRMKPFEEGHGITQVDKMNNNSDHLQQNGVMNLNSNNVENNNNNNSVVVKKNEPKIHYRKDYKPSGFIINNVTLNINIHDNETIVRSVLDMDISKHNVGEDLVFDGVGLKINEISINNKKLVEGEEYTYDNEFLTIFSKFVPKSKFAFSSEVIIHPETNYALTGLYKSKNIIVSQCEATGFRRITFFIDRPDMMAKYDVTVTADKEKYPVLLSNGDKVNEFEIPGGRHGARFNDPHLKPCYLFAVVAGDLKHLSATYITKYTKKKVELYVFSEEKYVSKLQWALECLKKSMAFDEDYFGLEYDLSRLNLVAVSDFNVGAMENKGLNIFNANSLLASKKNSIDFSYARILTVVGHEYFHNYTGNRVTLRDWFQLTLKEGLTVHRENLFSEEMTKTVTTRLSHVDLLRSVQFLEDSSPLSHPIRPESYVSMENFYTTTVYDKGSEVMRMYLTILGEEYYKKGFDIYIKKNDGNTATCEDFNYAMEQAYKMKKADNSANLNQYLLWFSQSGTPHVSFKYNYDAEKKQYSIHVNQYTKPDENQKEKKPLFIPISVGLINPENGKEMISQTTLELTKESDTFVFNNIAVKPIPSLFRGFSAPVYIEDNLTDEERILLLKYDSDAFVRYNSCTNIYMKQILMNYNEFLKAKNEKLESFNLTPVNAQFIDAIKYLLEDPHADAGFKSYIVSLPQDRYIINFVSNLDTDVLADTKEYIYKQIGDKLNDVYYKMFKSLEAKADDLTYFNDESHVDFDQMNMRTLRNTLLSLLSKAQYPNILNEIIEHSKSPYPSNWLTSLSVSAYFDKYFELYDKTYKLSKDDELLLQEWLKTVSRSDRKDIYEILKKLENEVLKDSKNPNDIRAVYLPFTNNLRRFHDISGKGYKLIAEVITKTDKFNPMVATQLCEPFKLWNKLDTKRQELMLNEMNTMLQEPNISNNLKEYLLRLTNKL

[21] = target: T9, Small ubiquitin-related modifier 1 (Homo sapiens, UniProt P63165); assay: inhibitors of SUMO1 peptide binding, dose response, biochemical, fluorescence polarization, uHTS hits (AID 624382); type: functional; settings: read-out: IC50_Mean
[22] = target: T10, Small ubiquitin-related modifier 2 (Homo sapiens, UniProt P61956); assay: inhibitors of SUMO2 protein-protein interaction, dose response, selectivity assay for SUMO1 interaction inhibitor project, biochemical, FRET, human SUMO2, uHTS hits (AID 624384); type: functional; settings: read-out: IC50_Mean
[23] = target: T9, Small ubiquitin-related modifier 1; assay: inhibitors of SUMO1 partner interactions, dose response, biochemical, FRET (AID 624383); type: functional; settings: read-out: IC50_Mean
[24] = target: T10, Small ubiquitin-related modifier 2; assay: SUMO2–SIM peptide binding inhibitors, dose response, selectivity assay for SUMO1 interaction inhibitor project, biochemical, fluorescence polarization, uHTS hits (AID 624385); type: functional; settings: read-out: IC50_Mean

T7 sequence (Q9P0U3 whole entry, the tested form may be a part): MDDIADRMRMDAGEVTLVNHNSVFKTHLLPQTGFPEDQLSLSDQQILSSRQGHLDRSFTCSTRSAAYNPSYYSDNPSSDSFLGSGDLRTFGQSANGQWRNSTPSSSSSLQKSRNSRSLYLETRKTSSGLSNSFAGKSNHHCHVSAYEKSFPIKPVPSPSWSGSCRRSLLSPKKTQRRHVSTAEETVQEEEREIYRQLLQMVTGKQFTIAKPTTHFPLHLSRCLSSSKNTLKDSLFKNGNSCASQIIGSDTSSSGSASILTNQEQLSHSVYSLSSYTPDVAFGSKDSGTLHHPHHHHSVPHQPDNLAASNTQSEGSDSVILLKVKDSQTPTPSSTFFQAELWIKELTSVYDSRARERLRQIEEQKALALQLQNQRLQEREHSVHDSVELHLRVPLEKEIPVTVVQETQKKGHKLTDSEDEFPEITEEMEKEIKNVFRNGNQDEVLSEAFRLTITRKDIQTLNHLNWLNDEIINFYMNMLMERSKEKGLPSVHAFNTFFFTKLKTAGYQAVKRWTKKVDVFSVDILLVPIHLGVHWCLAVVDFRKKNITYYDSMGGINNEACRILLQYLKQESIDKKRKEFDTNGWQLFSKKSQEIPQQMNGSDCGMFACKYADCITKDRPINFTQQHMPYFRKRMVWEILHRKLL
T9 sequence (P63165 whole entry): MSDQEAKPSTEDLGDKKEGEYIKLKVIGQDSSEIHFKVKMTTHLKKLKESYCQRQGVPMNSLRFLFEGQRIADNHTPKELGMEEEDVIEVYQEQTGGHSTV
T1 sequence (P65502 whole entry): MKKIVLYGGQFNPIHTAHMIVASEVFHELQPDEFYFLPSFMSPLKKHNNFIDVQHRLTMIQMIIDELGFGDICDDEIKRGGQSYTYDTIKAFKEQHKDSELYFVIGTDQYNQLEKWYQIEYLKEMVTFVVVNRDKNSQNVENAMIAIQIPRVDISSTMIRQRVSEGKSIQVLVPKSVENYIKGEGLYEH
T10 sequence (P61956 whole entry): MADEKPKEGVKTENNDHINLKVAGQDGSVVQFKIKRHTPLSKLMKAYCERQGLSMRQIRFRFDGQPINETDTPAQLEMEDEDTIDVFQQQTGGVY
T3 sequence (Q79MP6 whole entry): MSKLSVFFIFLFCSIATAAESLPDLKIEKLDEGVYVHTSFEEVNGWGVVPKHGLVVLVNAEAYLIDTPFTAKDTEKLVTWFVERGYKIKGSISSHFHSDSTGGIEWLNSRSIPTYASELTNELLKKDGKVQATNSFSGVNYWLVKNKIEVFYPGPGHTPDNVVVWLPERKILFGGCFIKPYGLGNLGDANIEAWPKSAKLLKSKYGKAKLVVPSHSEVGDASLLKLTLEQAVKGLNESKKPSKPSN
Sequence of Beta-galactosidase (Q8VNN2 whole entry): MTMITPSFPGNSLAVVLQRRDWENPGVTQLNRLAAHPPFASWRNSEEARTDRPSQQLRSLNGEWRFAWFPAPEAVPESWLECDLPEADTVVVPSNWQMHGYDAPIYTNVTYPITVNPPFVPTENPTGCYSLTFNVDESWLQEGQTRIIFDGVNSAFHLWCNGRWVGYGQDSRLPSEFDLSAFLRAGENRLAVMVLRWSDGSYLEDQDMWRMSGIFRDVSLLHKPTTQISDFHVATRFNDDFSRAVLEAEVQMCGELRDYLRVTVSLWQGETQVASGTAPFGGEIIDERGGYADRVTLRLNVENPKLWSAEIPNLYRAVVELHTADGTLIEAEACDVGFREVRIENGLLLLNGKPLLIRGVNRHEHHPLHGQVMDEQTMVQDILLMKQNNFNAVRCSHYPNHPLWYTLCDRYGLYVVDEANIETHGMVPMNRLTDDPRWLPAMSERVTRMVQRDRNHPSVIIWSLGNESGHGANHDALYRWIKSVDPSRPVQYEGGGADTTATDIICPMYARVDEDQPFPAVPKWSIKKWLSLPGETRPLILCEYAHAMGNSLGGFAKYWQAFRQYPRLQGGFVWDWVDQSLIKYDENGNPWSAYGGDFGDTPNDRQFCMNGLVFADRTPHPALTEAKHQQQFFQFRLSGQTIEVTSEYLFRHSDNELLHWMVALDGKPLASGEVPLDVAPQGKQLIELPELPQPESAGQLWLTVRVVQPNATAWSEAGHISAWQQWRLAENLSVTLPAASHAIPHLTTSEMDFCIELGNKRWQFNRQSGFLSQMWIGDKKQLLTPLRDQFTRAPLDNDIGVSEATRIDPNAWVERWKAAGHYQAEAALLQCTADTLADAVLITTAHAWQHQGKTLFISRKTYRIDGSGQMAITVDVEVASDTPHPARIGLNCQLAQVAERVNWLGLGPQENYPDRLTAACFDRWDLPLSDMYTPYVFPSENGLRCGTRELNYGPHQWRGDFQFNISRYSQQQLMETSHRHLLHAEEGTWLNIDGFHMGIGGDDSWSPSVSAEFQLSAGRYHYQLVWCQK
Sequence of Voltage-gated inwardly rectifying potassium channel KCNH2 (Q12809 whole entry): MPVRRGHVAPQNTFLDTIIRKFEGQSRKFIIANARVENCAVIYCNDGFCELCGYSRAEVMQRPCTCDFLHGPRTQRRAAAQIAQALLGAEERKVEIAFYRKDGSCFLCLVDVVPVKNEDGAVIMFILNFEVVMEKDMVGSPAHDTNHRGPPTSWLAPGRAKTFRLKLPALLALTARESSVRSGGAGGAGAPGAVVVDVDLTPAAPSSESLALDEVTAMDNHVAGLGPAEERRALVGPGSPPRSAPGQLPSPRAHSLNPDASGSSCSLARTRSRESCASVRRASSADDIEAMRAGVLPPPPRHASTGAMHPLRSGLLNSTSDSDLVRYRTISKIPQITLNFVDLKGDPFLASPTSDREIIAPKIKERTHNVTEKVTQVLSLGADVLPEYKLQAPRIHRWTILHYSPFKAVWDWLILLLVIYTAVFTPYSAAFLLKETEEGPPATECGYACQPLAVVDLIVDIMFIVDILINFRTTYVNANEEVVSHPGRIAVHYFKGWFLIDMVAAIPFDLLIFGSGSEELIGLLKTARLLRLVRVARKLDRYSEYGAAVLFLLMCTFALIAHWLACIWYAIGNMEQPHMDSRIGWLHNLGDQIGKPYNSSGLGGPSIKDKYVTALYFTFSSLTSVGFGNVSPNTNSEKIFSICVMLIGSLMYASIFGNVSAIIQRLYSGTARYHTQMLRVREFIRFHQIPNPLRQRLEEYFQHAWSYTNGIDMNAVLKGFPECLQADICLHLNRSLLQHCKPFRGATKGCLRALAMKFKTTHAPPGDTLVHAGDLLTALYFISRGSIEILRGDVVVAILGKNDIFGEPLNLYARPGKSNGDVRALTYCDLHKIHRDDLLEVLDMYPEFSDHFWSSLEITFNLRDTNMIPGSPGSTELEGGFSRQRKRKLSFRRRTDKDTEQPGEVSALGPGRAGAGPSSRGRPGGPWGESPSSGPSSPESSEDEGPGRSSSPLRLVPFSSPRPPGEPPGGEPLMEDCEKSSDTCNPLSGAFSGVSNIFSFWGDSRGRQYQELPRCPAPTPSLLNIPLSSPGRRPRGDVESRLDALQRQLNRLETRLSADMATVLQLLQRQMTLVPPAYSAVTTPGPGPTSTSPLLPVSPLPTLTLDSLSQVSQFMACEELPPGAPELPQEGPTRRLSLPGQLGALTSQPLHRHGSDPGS
Sequence of Beta-lactamase (Salmonella choleraesuis (strain SC-B67), UniProt Q5J463) (Q5J463 whole entry): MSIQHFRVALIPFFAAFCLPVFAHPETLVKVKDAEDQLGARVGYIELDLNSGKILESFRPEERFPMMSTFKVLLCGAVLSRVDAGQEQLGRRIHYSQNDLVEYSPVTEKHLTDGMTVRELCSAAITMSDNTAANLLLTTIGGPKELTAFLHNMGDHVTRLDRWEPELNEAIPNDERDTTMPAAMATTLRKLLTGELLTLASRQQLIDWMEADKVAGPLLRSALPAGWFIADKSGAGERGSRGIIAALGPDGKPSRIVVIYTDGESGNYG
Sequence of Fructose-bisphosphate aldolase (P9WQA3 whole entry): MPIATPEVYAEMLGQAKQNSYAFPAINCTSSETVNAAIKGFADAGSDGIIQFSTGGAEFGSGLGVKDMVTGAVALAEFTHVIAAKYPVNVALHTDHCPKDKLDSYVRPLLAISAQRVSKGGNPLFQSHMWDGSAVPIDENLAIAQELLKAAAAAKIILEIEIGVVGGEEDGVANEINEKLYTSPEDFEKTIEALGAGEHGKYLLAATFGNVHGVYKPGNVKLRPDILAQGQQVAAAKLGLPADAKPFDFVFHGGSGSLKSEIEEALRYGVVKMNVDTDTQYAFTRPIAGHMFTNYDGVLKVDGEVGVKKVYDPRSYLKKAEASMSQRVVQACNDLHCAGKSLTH
Sequence of Large T antigen (P03070 whole entry): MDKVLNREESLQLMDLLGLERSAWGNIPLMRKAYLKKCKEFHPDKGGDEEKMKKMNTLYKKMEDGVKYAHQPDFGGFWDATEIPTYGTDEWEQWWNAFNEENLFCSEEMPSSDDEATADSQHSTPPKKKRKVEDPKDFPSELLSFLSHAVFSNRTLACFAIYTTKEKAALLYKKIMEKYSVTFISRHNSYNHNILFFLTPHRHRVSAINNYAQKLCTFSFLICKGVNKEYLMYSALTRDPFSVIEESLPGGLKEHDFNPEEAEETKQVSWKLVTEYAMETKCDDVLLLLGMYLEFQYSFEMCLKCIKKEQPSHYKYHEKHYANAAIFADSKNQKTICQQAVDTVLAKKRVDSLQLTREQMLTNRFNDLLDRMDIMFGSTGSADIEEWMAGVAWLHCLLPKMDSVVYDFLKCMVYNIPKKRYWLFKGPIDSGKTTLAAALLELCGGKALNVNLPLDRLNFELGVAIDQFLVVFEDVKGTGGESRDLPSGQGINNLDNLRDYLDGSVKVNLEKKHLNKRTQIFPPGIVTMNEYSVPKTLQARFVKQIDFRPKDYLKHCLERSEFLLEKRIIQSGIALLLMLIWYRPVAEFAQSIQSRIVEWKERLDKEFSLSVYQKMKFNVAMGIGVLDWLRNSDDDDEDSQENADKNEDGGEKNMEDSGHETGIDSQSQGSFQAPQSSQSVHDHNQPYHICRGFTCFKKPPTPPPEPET

SMILES: Cc1ccc(NC(=O)c2cc(-c3cc(Cl)ccc3C)[nH]n2)cc1NS(C)(=O)=O
- AC50 (A549): 23.8 µM (active)

SMILES: COCCn1/c(=N/C(=O)c2cc(-c3cccs3)nc3ccccc23)sc2cc(S(N)(=O)=O)ccc21
- EC50 [1]: 2.47 µM (active)
- IC50 [2]: 23.8 µM (active)
- IC50 (Albumin): > 94.1 µM (inactive)
- IC50 [3]: 12.4 µM (active)
- CC50 [4]: > 50 µM (active)
- EC50 [5]: > 60 µM (not active)

SMILES: Cc1ccc(CNC(=O)C2CCN(S(=O)(=O)c3ccc(Br)s3)CC2)cc1
- IC50 (Beta-galactosidase): > 80 µM (inactive)

SMILES: Sc1nc(-c2ccccc2)cn1/N=C/c1cccc2ccccc12
- EC50 (Streptococcus): > 150 µM (not active)
- EC50 [6]: 0.7 µM (active)
- EC50 (Streptokinase A): > 150 µM (not active)
- EC50 [7]: 89.1 µM (active)
- IC50 [8]: > 9.99 µM (inactive)

SMILES: Cc1ccc(-c2nnc(S)n2-c2ccccc2)cc1
- IC50 (Beta-lactamase [9]): > 59.6 µM (inactive)
- IC50 (Beta-lactamase [10]): > 59.6 µM (inactive)
- IC50 (Beta-lactamase [11]): > 59.6 µM (inactive)

SMILES: O=C(NNC(=O)c1ccc2ccccc2c1)c1ccc(Cl)cc1
- IC50 [12]: > 80 µM (inactive)
- IC50 [13]: 54.1 µM (inactive)
- IC50 [14]: 20 µM (inactive)

SMILES: CCCCN(CC)CCNC(=O)c1cc2c(O)nc3ccc(C)cc3c2s1
- AC50 [15]: 100 µM (inactive)
- AC50 [16]: 23.1 µM (active)

SMILES: Cc1ccc(-c2nc3ncccn3c2NC2CCCCC2)o1
- IC50 [17]: 8.98 µM (active)
- IC50 [18]: 19.7 µM (active)
- IC50 (Large T antigen): 25.9 µM (active)

SMILES: Cc1ccc(S(=O)(=O)Nc2ccc3c(c2)CC(=O)N([C@H](C)CO)C[C@@H](C)[C@@H](CN(C)S(=O)(=O)c2ccc(Cl)cc2)O3)cc1
- AC50 [19]: 1.96 µM (active)
- AC50 [20]: 33.1 µM (active)

SMILES: Nc1cccc2[nH]c(C(F)(F)F)nc12
- IC50 (Aminopeptidase N): 80.8 µM (active)
- IC50 [21]: 26.8 µM (inactive)
- IC50 [22]: 10.4 µM (active)
- IC50 [23]: 37 µM (inactive)
- IC50 [24]: 29.8 µM (inactive)
